How the values were obtained:
[1] = system: Crabgrass (CG); experiment: Pre-emergence herbicide test; assay type: in vivo, Digitaria sanquinalis; settings: Digitaria sanguinalis, pre-emergence, 336 h, two weeks after treatment; for pest or weed control: 2 lb/acre; for pest or weed control at 4483.4 g/ha: 4 lb/acre
In short: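 Crabgrass (Digitaria sanquinalis) was surface seeded in 3' plastic pots of potting soil, covered with screened soil, and watered by sub-irrigation in greenhouse trays. Pots were seeded one day before spraying in a hood with a moving belt and fixed nozzle. Plants stayed in the greenhouse on sub-irrigation, and pre-emergence control was rated visually two weeks after treatment.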

[2] = system: Cotton (CT); experiment: Post-emergence herbicide test; assay type: in vivo, Gossypium hirsutum var. DPL smooth leaf; settings: Gossypium hirsutum, post-emergence, 336 h, two weeks after treatment; for pest or weed control at 2241.7 g/ha: 2 lb/acre; for pest or weed control at 4483.4 g/ha: 4 lb/acre
In short: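 This greenhouse post-emergence test measured how well spray treatments controlled cotton. Seedlings of Gossypium hirsutum var. DPL smooth leaf, with expanded cotyledons and a first true leaf 1' in length, were sprayed with 50 ml formulations in a belt-fed spray hood. They were then returned to the greenhouse and watered only by sub-irrigation. Injury was scored visually as % control after two weeks.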

[3] = system: Crabgrass (CG); experiment: Post-emergence herbicide test; assay type: in vivo, Digitaria sanquinalis; settings: Digitaria sanguinalis, post-emergence, 336 h, two weeks after treatment; for pest or weed control: 2 lb/acre; for pest or weed control at 4483.4 g/ha: 4 lb/acre
In short: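 Crabgrass (Digitaria sanquinalis) was surface seeded individually in 3' plastic pots of potting soil, covered with screened soil, and watered by sub-irrigation in greenhouse trays. Planting was staggered so seedlings reached the target stage together. Post-emergence sprays were applied in a hood with a removable belt and fixed nozzle, and control was visually rated two weeks after treatment.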

[4] = system: Bean (BN); experiment: Post-emergence herbicide test; assay type: in vivo, Phaseolus vulgaris var. Black Valentine; settings: Phaseolus vulgaris, post-emergence, 336 h, two weeks after treatment; for pest or weed control at 2241.7 g/ha: 2 lb/acre; for pest or weed control at 4483.4 g/ha: 4 lb/acre
In short: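 Bean seedlings (Phaseolus vulgaris var. Black Valentine) were grown in potting soil in 3' pots until the primary leaves expanded. They were then sprayed under a hood with a removable belt and fixed nozzle, using 50 ml formulations. Afterward they were returned to the greenhouse and watered only by sub-irrigation. Percent control was judged visually two weeks after treatment.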

[5] = system: Cotton (CT); experiment: Pre-emergence herbicide test; assay type: in vivo, Gossypium hirsutum var. DPL smooth leaf; settings: Gossypium hirsutum, 336 h, two weeks after treatment; for pest or weed control at 2241.7 g/ha: 2 lb/acre; for pest or weed control at 4483.4 g/ha: 4 lb/acre
In short: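 Visual injury/control ratings were taken at two weeks post-spray. Pots seeded a day earlier received compound pre-emergence at 8 lbs/acre, or 4 lbs/acre, in a 38 gallon/acre spray volume, and were then held in the greenhouse, watered only from below.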

[6] = system: Turnip (TP); experiment: Post-emergence herbicide test; assay type: in vivo, Brassica sp.; settings: Brassica rapa, post-emergence, 336 h, two weeks after treatment; for pest or weed control at 2241.7 g/ha: 2 lb/acre; for pest or weed control at 4483.4 g/ha: 4 lb/acre
In short: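 A greenhouse post-emergence herbicide test on turnip. Seeds were sown on the surface of potting soil in 3' plastic pots, lightly covered with screened soil and watered from below. Planting was timed so seedlings had 1 or 2 true leaves above the cotyledons at spraying, done in a hood with a fixed nozzle. Control or injury was scored by eye after two weeks.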

[7] = system: Johnson grass (JG); experiment: Pre-emergence herbicide test; assay type: in vivo, Sorgum helepense; settings: Sorghum halepense, 336 h, two weeks after treatment; for pest or weed control at 2241.7 g/ha: 2 lb/acre; for pest or weed control at 4483.4 g/ha: 4 lb/acre
In short: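 Visual injury or control rating two weeks post-treatment, after pre-emergence spray of 8 or 4 lbs active per acre (38 gal/acre) onto pots sown the previous day. Greenhouse watering by sub-irrigation only.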

[8] = system: Barnyard grass (BG); experiment: Post-emergence herbicide test; assay type: in vivo; settings: Echinochloa crus-galli, 336 h, two weeks after treatment; for pest or weed control at 2241.7 g/ha: 2 lb/acre
In short: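 Greenhouse pot-grown barnyard grass seedlings sprayed post-emergence at 8 lbs active compound per acre (some at 4 lbs/acre) in 38 gallons per acre, then sub-irrigated. Injury or control rated visually two weeks after treatment.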

[9] = system: Corn (CN); experiment: Pre-emergence herbicide test; assay type: in vivo; settings: Zea mays, 336 h, two weeks after treatment; for pest or weed control at 2241.7 g/ha: 2 lb/acre; for pest or weed control at 4483.4 g/ha: 4 lb/acre
In short: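 Visual injury/control ratings were made 2 weeks post-spray on corn pots seeded (4 seeds, seed-diameter depth) the day before treatment. Application was a belt-hood spray of 38 gal/acre delivering 8 lbs active per acre, with a 4 lbs/acre rate also formulated. Watering was by sub-irrigation throughout.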

[10] = system: Amaranth pigweed (PW); experiment: Pre-emergence herbicide test; assay type: in vivo, Amaranthus retroflexus; settings: 336 h, two weeks after treatment; for pest or weed control at 4483.4 g/ha: 4 lb/acre
In short: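 Visual injury or control ratings were made at two weeks on pre-emergence pots, sub-irrigated in the greenhouse. Seeds were sown a day before a hood spray delivering 8 lbs/acre (or 4 lbs/acre) of compound in 38 gallons per acre.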

[11] = system: Corn (CN); experiment: Post-emergence herbicide test; assay type: in vivo; settings: Zea mays, 336 h, two weeks after treatment; for pest or weed control: 2 lb/acre; for pest or weed control at 4483.4 g/ha: 4 lb/acre
In short: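 Greenhouse seedlings grown in potting soil and sprayed post-emergence at 8 lbs compound/acre (formulations also made for 4 lbs/acre) in 38 gallons/acre spray volume. Watering by sub-irrigation only. Injury or control rated visually two weeks after treatment.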

[12] = system: Amaranth pigweed (PW); experiment: Post-emergence herbicide test; assay type: in vivo, Amaranthus retroflexus; settings: 336 h, two weeks after treatment; for pest or weed control at 4483.4 g/ha: 4 lb/acre
Method: Amaranth pigweed (PW)--Amaranthus retroflexus
All crop and weed species were planted individually in 3' plastic pots containing potting soil. Four seeds each of corn, cotton, and snapbeans were seeded to a depth equal to the diameter of the seed. All other species were surface seeded and sprinkled with screened soil in an amount sufficient to cover the seed. Immediately after planting, all pots were watered by sub-irrigation in greenhouse trays. Pots for the pre-emergence phase were seeded one day before treatment.
Planting dates for the post-emergence phase were varied so that all seedlings would reach the desired stage of development simultaneously. The proper stage of seedling development for treatment in the post-emergence phase is as follows:
Pigweed and turnips: 1 or 2 true leaves above visible cotyledons.
Compounds were tested at rates of application equivalent to 8 lbs. of actual compound per acre in a spray volume of 38 gallons per acre. Spray hood constants required to deliver the above volume are as follows:
Formulations for spray applications were prepared in 50 ml volumes with the following three components:
Formulations for the 4 lbs/acre rate were prepared by adjusting the amount of active ingredient accordingly.
Spray applications were made in a hood containing a removable belt and fixed spray nozzle. For passage through the spray hood, one pot of each specie (pre-emergence phase) was placed on the rear half of the flat. Treatments were removed to the greenhouse after spraying. Watering during the observation period was done only by sub-irrigation.
Two weeks after treatment, pre- and post-emergence injury or control was visually rated, and the results were as shown in the following tables. Pre-emergence data are provided in TABLE III and post-emergence data are provided in TABLE IV, for compounds having the formula illustrated in TABLE I. Correspondingly, pre-emergence and post-emergence data, respectively, are set forth in TABLES V AND VI, for compounds having the formula illustrated in TABLE II.

[13] = system: Johnson grass (JG); experiment: Post-emergence herbicide test; assay type: in vivo, Sorgum helepense; settings: Sorghum halepense, 336 h, two weeks after treatment; for pest or weed control: 2 lb/acre; for pest or weed control at 4483.4 g/ha: 4 lb/acre
In short: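 Visual injury or control scores taken 2 weeks after a post-emergence spray of pot-grown plants. Application was 8 lbs/acre (or 4 lbs/acre) in 38 gal/acre. Plants were held in the greenhouse with sub-irrigation only.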

[14] = system: Barnyard grass (BG); experiment: Pre-emergence herbicide test; assay type: in vivo; settings: Echinochloa crus-galli, 336 h, two weeks after treatment; for pest or weed control at 2241.7 g/ha: 2 lb/acre; for pest or weed control at 4483.4 g/ha: 4 lb/acre
In short: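 Greenhouse pre-emergence spray test: pots seeded one day before treatment received compound at rates of 8 or 4 lb/acre (38 gal/acre). Visual injury/control scores for Echinochloa crus-galli taken at two weeks, with watering by sub-irrigation only.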

[15] = system: Turnip (TP); experiment: Pre-emergence herbicide test; assay type: in vivo, Brassica sp.; settings: Brassica rapa, pre-emergence, 336 h, two weeks after treatment; for pest or weed control at 2241.7 g/ha: 2 lb/acre; for pest or weed control at 4483.4 g/ha: 4 lb/acre
In short: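 In this pre-emergence greenhouse test, turnip was seeded on the surface of potting soil in 3' plastic pots, lightly covered with screened soil, and watered from below. One day later the pots were sprayed in a belt-fed spray hood. Watering continued only by sub-irrigation, and percent control was visually scored two weeks after treatment.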

[16] = system: Bean (BN); experiment: Pre-emergence herbicide test; assay type: in vivo, Phaseolus vulgaris var. Black Valentine; settings: Phaseolus vulgaris, 336 h, two weeks after treatment; for pest or weed control at 2241.7 g/ha: 2 lb/acre; for pest or weed control at 4483.4 g/ha: 4 lb/acre
In short: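 Visual injury/control ratings were taken two weeks post-spray on sub-irrigated Phaseolus vulgaris var. Black Valentine. Pots were sown a day before treatment. Pre-emergence spray delivered 8 lbs actual compound per acre (or 4 lbs/acre) at 38 gallons per acre.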

| SMILES | pest or weed control [1] [%] | pest or weed control at 4483.4 g/ha [1] [%] | pest or weed control at 2241.7 g/ha [2] [%] | pest or weed control at 4483.4 g/ha [2] [%] | pest or weed control [3] [%] | pest or weed control at 4483.4 g/ha [3] [%] | pest or weed control at 2241.7 g/ha [4] [%] | pest or weed control at 4483.4 g/ha [4] [%] | pest or weed control at 2241.7 g/ha [5] [%] | pest or weed control at 4483.4 g/ha [5] [%] | pest or weed control at 2241.7 g/ha [6] [%] | pest or weed control at 4483.4 g/ha [6] [%] | pest or weed control at 4483.4 g/ha [7] [%] | pest or weed control at 4483.4 g/ha [9] [%] | pest or weed control at 4483.4 g/ha [10] [%] | pest or weed control at 4483.4 g/ha [11] [%] | pest or weed control at 4483.4 g/ha [12] [%] | pest or weed control at 4483.4 g/ha [13] [%] | pest or weed control at 4483.4 g/ha [15] [%] | pest or weed control at 4483.4 g/ha [16] [%] | other results |
| --- | --- | --- | --- | --- | --- | --- | --- | --- | --- | --- | --- | --- | --- | --- | --- | --- | --- | --- | --- | --- | --- |
| CCCSc1nnc(N(C)C(=O)N(C)C)s1 [Example 66] | 30 | 100 | 100 | 100 | 50 | 100 | 90 | 100 | 80 | 100 | 100 | 100 | 100 | 50 | 100 | 100 | 100 | 60 | 100 | 100 | pest or weed control at 2241.7 g/ha [7]: 20%; pest or weed control at 2241.7 g/ha [8]: 60%; pest or weed control at 4483.4 g/ha ([8]; 4 lb/acre): 70%; pest or weed control at 2241.7 g/ha [9]: 0%; pest or weed control at 2241.7 g/ha ([10]; 2 lb/acre): 100%; pest or weed control [11]: 30%; pest or weed control at 2241.7 g/ha ([12]; 2 lb/acre): 100%; pest or weed control [13]: 50%; pest or weed control at 2241.7 g/ha [14]: 30%; pest or weed control at 4483.4 g/ha [14]: 100%; pest or weed control at 2241.7 g/ha [15]: 50%; pest or weed control at 2241.7 g/ha [16]: 100% |
| CNC(=O)Nc1nnc(C(F)F)s1 [Example 67] | 80 | 90 | 100 | 100 | 80 | 80 | 90 | 100 | 0 | 80 | 100 | 100 | 50 | 70 | 100 | 70 | 100 | 90 | 100 | 90 | pest or weed control at 2241.7 g/ha [7]: 40%; pest or weed control at 2241.7 g/ha [8]: 80%; pest or weed control at 2241.7 g/ha [9]: 0%; pest or weed control [11]: 40%; pest or weed control [13]: 40%; pest or weed control at 2241.7 g/ha [14]: 50%; pest or weed control at 2241.7 g/ha [15]: 60%; pest or weed control at 2241.7 g/ha [16]: 0% |
| CCOC(=O)C(Sc1nnc(NC(=O)NC)s1)C(=O)OCC [Example 79] | – | 20 | – | 90 | – | 30 | – | 60 | – | 50 | – | 40 | 20 | 20 | 0 | 40 | 40 | 30 | 20 | 90 | – |
| CNC(=O)Nc1nnc(SCC#N)s1 [Example 88] | – | 10 | – | 50 | – | 20 | – | 30 | – | 50 | – | 40 | 10 | 10 | 10 | 20 | 20 | 20 | 70 | 100 | pest or weed control at 4483.4 g/ha [14]: 10% |

From patent US4175081A, “5-Substituted thiadiazole ureas” (priority 1977, dated 1979)
